Measured values published in US5990094A, “Inhibitors of sorotonin N-acetyltransferase” (The Rockefeller University, priority 1998, dated 1999).

Assays:
GST-AANAT = target: T1, GST-AANAT (Ovis aries, UniProt Q29495); test: Effect of DTNB on GST-AANAT activity; type: biochemical, sheep
T1 construct: The entire open reading frame of the DNA encoding sheep AANAT in the plasmid vector pET15b; made in house; host or cells: Escherichia coli BL21(DE3)pLysS
Description: The potential difficulty with this approach was that reducing agents such as dithiothreitol and β-mercaptoethanol react with DTNB (Ellman's reagent). Indeed, GST-AANAT is somewhat unstable in the absence of reducing agents, losing greater than 50% activity within 2 h at 4° C. (data not shown). However, the enzyme was stable within the short incubation periods used in these studies (less than 3 min). It was shown unequivocally that CoASH generation was coupled tightly to N-acetyltryptamine formation, and the activity was linear with time and enzyme concentration.

[1] = test system: intracellular receptors for melatonin; conditions: intracellular orphan receptors vs G-protein family; cited from earlier work
[2] = people; cited from earlier work
AANAT = conditions: 2-fluorohistidine replaces histidine; cited from earlier work

T1 sequence (Q29495 other isoform, or with tags, fused parts or gaps): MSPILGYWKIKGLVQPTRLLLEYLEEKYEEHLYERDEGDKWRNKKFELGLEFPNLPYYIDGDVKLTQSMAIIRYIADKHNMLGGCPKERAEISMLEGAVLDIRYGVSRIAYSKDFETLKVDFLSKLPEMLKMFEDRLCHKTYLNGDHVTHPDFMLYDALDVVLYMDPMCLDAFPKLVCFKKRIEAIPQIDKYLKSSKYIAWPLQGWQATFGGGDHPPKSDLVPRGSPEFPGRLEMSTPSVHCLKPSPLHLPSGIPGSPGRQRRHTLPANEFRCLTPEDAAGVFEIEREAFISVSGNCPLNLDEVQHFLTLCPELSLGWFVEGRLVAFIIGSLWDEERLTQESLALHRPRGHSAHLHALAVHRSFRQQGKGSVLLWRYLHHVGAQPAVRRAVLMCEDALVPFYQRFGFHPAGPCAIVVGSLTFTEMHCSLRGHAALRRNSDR

## O=C(O)c1cc(SSc2ccc([N+](=O)[O-])c(C(=O)O)c2)ccc1[N+](=O)[O-] [DTNB, 5,5'-dithiobis-(2-nitrobenzoic acid]
GST-AANAT
  effect on GST-AANAT activity: inhibited GST-AANAT activity

## COc1ccc2[nH]cc(CCNC(C)=O)c2c1 [Melatonin, 5-methoxy-N-acetyltryptamine]
[1]
  Kd of binding and activation, higher compared to G-protein family receptors: 10-100 fold
[2]
  oral bioavailability variability: 25 fold range

## N[C@@H](Cc1c[nH]c(F)n1)C(=O)O [2-fluorohistidine]
AANAT
  induction of AANAT in the pineal: induction of AANAT in the pineal is blocked
